Holding throughout (assay type): functional, Homo sapiens
Holding throughout (conditions): Concentration 10 uM; for viability at 10 µM: Homo sapiens, read-out: Cell Viability

Assay [1] relates to Colon cancer organoid. The assay can be described thus: Targeting of F14 CAF-induced therapy resistance in O23 CRC organoid-stroma co-culture. Cell viability is reported without Gefitinib.
Assay [2] has as its system Colon cancer organoid. The assay can be described thus: Targeting of F14 CAF-induced therapy resistance in O14 CRC organoid-stroma co-culture. Cell viability is reported without Gefitinib.
The subject of assay [3] is Colon cancer organoid. Nature of the assay: Targeting of F14 CAF-induced therapy resistance in O23 CRC organoid-stroma co-culture. Cell viability is reported with SN-38.
Assay [4] relates to Colon cancer organoid. Nature of the assay: Targeting of F14 CAF-induced therapy resistance in O23 CRC organoid-stroma co-culture. Cell viability is reported with Gefitinib.
Assay [5] deals with Colon cancer organoid. Nature of the assay: Targeting of F14 CAF-induced therapy resistance in O14 CRC organoid-stroma co-culture. Cell viability is reported with Gefitinib.

The record followed here is ChEMBL document CHEMBL5608113, “Targeting of CAF-induced therapy resistance in CRC organoid-stroma co-cultures” (2024).

Where “and” joins values, the source holds several entries; their conditions need not be identical. Equal values may be shown once.

On to `CCCCNNC(=O)c1ccc(Br)cc1`, for which the viability (commonly a read-out of living cells in per cent, often relative to untreated cells) at 10 µM with Colon cancer organoid [1] is 151%; with Colon cancer organoid [2], 85.9%; in the assay with Colon cancer organoid [3], 75%; with Colon cancer organoid [4] it was 53.8%; in the assay with Colon cancer organoid [5] it was 44.9%.
The like results for `CC1(C)C(N)=Nc2cc(OCCCCN3Cc4ccc(OCc5cn(CC(=O)N6CCC(CCN7CCCC7)CC6)nn5)cc4C3)c(OCC3CC3)cc21` were, in that order, 86.3%, 107%, 78.3%, 44% and 45.4%.
The like results for `COc1cc(OC)cc(-c2noc(N3CCN(C)C4(CCN(c5ccccc5)CC4)C3)n2)c1` were, in that order, 104%, 114%, 81.3%, 65.9% and 46.8%.
The like results for `O=C(c1ccc(C(=O)N2CCC(N3CCCC3)CC2)c(Nc2ccccc2)c1)N1CCC(N2CCCC2)CC1` were, in that order, 122%, 121%, 67.2%, 57.4% and 47.7%.
For `Cn1c(=O)[nH]c2cc(N3C(=O)c4cccc5c(CCCO)ccc(c45)C3=O)ccc21`, the viability at 10 µM in the assay on Colon cancer organoid [1] was found to be 132%; with Colon cancer organoid [2], 92.6%; in the assay on Colon cancer organoid [3], 69.9%; in the assay with Colon cancer organoid [4], 52.8%; with Colon cancer organoid [5] it was 42.4%.
The like results for `CCCCNc1ncc(-c2ccc(CN3CCOCC3)cn2)c(N[C@H]2CC[C@H](O)CC2)n1` were, in that order, 18.1%, 9.12%, 28.9%, 12% and 3.91%.
The like results for `Cn1nc(C(F)(F)F)cc1-c1cnc(N2CCc3cc(S(=O)(=O)Nc4c(F)cc(Cl)cc4F)cc(N4CCCC4=O)c32)nc1` [TP-020] were, in that order, 133%, 95%, 92.4%, 65.7% and 61.7%.
Turning to `CCCS(=O)(=O)c1nc(NC2CC2)cc(-c2ccc3c(ccn3C3CC(C)(C)NC(C)(C)C3)c2)n1`, the “Cell Viability” value is 73.362% and 105.525% in the assay with Colon cancer organoid [1] (10 µM); 91.0371% and 136.896% in the assay on Colon cancer organoid [2] (10 µM); 68.6533% in the assay on Colon cancer organoid [3] (10 µM); 66.056% in the assay on Colon cancer organoid [4] (10 µM); 57.1178% in the assay on Colon cancer organoid [5] (10 µM). For the same molecule, the results for the viability at 10 µM in the assay on Colon cancer organoid [3], in the assay on Colon cancer organoid [4] and with Colon cancer organoid [5] were 77.1%, 68.4% and 49.6%, respectively.
As for `COc1ccc2c(c1)O[C@@H](c1ccc(OC)c(OC)c1)C[C@H]2NC(=O)C1(c2ccc3c(c2)OC(F)(F)O3)CC1` [A-1596586], the viability at 10 µM was found to be 129% in the assay on Colon cancer organoid [1]; 121% in the assay on Colon cancer organoid [2]; 51.3% with Colon cancer organoid [3]; 42.2% with Colon cancer organoid [4]; 44.6% in the assay on Colon cancer organoid [5].
The like results for `COc1cc(-c2cn([C@H]3CCc4c(F)cccc4N(CC(F)(F)F)C3=O)nn2)ccc1-n1cnc(C)c1` were, in that order, 86.7%, 108%, 69.6%, 72% and 38.5%.
Regarding `CCN(CC)S(=O)(=O)Nc1cccc(-c2ccc3c(NC(=O)C4CC4)n[nH]c3c2)c1`, the viability at 10 µM in the assay with Colon cancer organoid [1] was found to be 120%; in the assay with Colon cancer organoid [2], 144%; in the assay on Colon cancer organoid [3], 69.2%; with Colon cancer organoid [4] it was 65.5%; with Colon cancer organoid [5], 50.5%.
Turning to `Cn1cncc1[C@@](O)(COc1ccc(C#N)cc1-c1ccc(OC(F)(F)F)cc1)c1ccc(C#N)cc1` [A-108], the viability at 10 µM in the assay on Colon cancer organoid [1] amounted to 131%; with Colon cancer organoid [2], 108%; in the assay on Colon cancer organoid [3], 112%; with Colon cancer organoid [4], 69.3%; in the assay with Colon cancer organoid [5], 47.8%.
